Test results: US8691800B2, “Quinoline derivatives as antibacterial agents” (Janssen Pharmaceutica N.V., priority 2005, dated 2014)
Converted amounts (≈) assume the structure as drawn.

How the values were obtained:
[1] = test system: Bacillus subtilis (ATCC43639); test: Microtitre plate assay, IC90 for bacterial growth; type: cell-based; details: for IC90: Bacillus subtilis, ATCC43639, 90% inhibitory concentration for bacterial growth, read-out: IC90 BSU 43639
Protocol: (§1) The bacteria used in this study were grown overnight in flasks containing 100 ml Mueller-Hinton Broth (Becton Dickinson—cat. no. 275730) in sterile de-ionized water, with shaking, at 37° C. Stocks (0.5 ml/tube) were stored at 70° C. until use. Bacteria titrations were performed in microtiter plates and colony forming units (CFUs) were determined. In general, an inoculum level of approximately 100 CFUs was used for susceptibility testing.
(§2) Anti bacterial Susceptibility Testing: IC90 Determination
(§3) Flat-bottom, sterile 96-well plastic microtiter plates were filled with 180 μl of sterile deionized water, supplemented with 0.25% BSA. Subsequently, stock solutions (7.8× final test concentration) of compounds were added in 45 μl volumes in column 2. Serial five-fold dilutions (45 μl in 180 μl) were made directly in the microtiter plates from column 2 to reach column 11. Untreated control samples with (column 1) and without (column 12) inoculum were included in each microtiter plate. Depending on the bacteria type, approximately 10 to 60 CFU per well of bacteria inoculum (100 TCID50), in a volume of 100 μl in 2.8× Mueller-Hinton broth medium, was added to the rows A to H, except column 12. The same volume of broth medium without inoculum was added to column 12 in row A to H. The cultures were incubated at 37° C. for 24 hours under a normal atmosphere (incubator with open air valve and continuous ventilation). At the end of incubation, one day after inoculation, the bacterial growth was quantitated fluorometrically. Therefore resazurin (0.6 mg/ml) was added in a volume of 20 μl to all wells 3 hours after inoculation, and the plates were re-incubated overnight. A change in colour from blue to pink indicated the growth of bacteria. The fluorescence was read in a computer-controlled fluorometer (Cytofluor Biosearch) at an excitation wavelength of 530 nm and an emission wavelength of 590 nm. The % growth inhibition achieved by the compounds was calculated according to standard methods. The IC90 (expressed in μg/ml) was defined as the 90% inhibitory concentration for bacterial growth.

[2] = test system: Enterococcus faecalis (ATCC29212); test: Microtitre plate assay, IC90 for bacterial growth; type: cell-based; details: for IC90 EFA 29212: 90% inhibitory concentration for bacterial growth; for IC90: Enterococcus faecalis, ATCC29212, 90% inhibitory concentration for bacterial growth, read-out: IC90 EFA 29212
Protocol: as §1, §2, §3

[3] = test system: Listeria monocytogenes (ATCC49594); test: Microtitre plate assay, IC90 for bacterial growth; type: cell-based
Protocol: as §1, §2, §3

[4] = test system: Pseudomonas aeruginosa (ATCC27853); test: Microtitre plate assay, IC90 for bacterial growth; type: cell-based; details: for IC90 PAE 27853: 90% inhibitory concentration for bacterial growth; for IC90: Pseudomonas aeruginosa, ATCC27853, 90% inhibitory concentration for bacterial growth, read-out: IC90 PAE 27853
Protocol: as §1, §2, §3

[5] = test system: Staphylococcus aureus (ATCC25923); test: Microtitre plate assay, IC90 for bacterial growth; type: cell-based; details: for IC90: Staphylococcus aureus, ATCC25923, 90% inhibitory concentration for bacterial growth, read-out: IC90 STA 25923
Protocol: as §1, §2, §3

[6] = test system: Staphylococcus aureus (ATCC29213); test: Microtitre plate assay, IC90 for bacterial growth; type: cell-based; details: 90% inhibitory concentration for bacterial growth, 24 hours at 37° C., resazurin; for IC90: Staphylococcus aureus, ATCC29213, 24 h, read-out: IC90 STA 29213
Protocol: as §1, §2, §3

[7] = test system: Streptococcus pneumoniae (ATCC6305); test: Microtitre plate assay, IC90 for bacterial growth; type: cell-based; details: for IC90 SPN 6305: 90% inhibitory concentration for bacterial growth; for IC90: Streptococcus pneumoniae, ATCC6305, 90% inhibitory concentration for bacterial growth, read-out: IC90 SPN 6305
Protocol: as §1, §2, §3

[8] = test system: Streptococcus pyogens (ATCC8668); test: Microtitre plate assay, IC90 for bacterial growth; type: cell-based; details: for IC90 SPY 8668: 90% inhibitory concentration for bacterial growth; for IC90: Streptococcus, ATCC8668, 90% inhibitory concentration for bacterial growth, read-out: IC90 SPY 8668
Protocol: as §1, §2, §3

[9] = test system: methicilline resistant Staphylococcus aureus (MRSA) (a clinical isolate from the University of Antwerp); test: Microtitre plate assay, IC90 for bacterial growth; type: cell-based; details: 90% inhibitory concentration for bacterial growth; for IC90: Staphylococcus aureus, MRSA, read-out: IC90 STA RMETHIC
Protocol: as §1, §2, §3

[10] = 90% inhibitory concentration for bacterial growth

| Compound | IC90 EFA 29212 [2] [µg/mL] | IC90 PAE 27853 [4] [µg/mL] | IC90 STA 29213 [6] [µg/mL] | IC90 SPN 6305 [7] [µg/mL] | IC90 SPY 8668 [8] [µg/mL] | IC90 STA RMETHIC [9] [µg/mL] | IC90 [2] [µg/mL] | IC90 [4] [µg/mL] | IC90 [6] [µg/mL] | IC90 [8] [µg/mL] | melting point [°C] | also measured |
| --- | --- | --- | --- | --- | --- | --- | --- | --- | --- | --- | --- | --- |
| COc1nc2ccc(-c3ccccc3)cc2cc1C(c1ccccc1)C1(c2cccc3ccccc23)CCN(C)CO1 (single isomer, unassigned) [Compound 2] | 55.1 (≈ 100 µM) | 55.1 (≈ 100 µM) | 55.1 (≈ 100 µM) | 5.5 (≈ 9.99 µM) | 55.1 (≈ 100 µM) | 55.1 (≈ 100 µM) | – | – | – | – | – | IC90 BSU 43639 [1, 10]: 55.1 µg/mL (≈ 100 µM); IC90 LMO 49594 [3, 10]: 55.1 µg/mL (≈ 100 µM); IC90 STA 25923 [5, 10]: 55.1 µg/mL (≈ 100 µM) |
| COc1nc2ccc(-c3ccco3)cc2cc1C(c1ccccc1)C1(c2cccc3ccccc23)CCN(C)CO1 (single isomer, unassigned) [Compound 6] | – | – | – | 2.7 (≈ 4.99 µM) | – | 54.1 (≈ 100 µM) | 13.6 (≈ 25.2 µM) | 13.6 (≈ 25.2 µM) | 13.6 (≈ 25.2 µM) | 13.6 (≈ 25.2 µM) | – | IC90 [1]: 13.6 µg/mL (≈ 25.2 µM); IC90 [5]: 13.6 µg/mL (≈ 25.2 µM) |
| COc1nc2ccc(Br)cc2cc1C(c1ccccc1)C1(c2cccc3ccccc23)CC[N+](C)(C)CO1.[I-] (single isomer, unassigned) [Compound 18] | – | – | – | – | – | – | 1.8 | 2 | 2.3 | 1.8 | 228 | IC90 [7]: 1.8 µg/mL; IC90 [9]: 2.3 µg/mL |
| COc1nc2ccc(Cl)cc2cc1C(c1ccccc1)C1(c2cccc3ccccc23)CCN(C)CO1 (single isomer, unassigned) [Compound 3] | – | – | 12.8 (≈ 25.1 µM) | – | – | – | – | – | – | – | – | – |
| CC[N+]1(C)CCC(c2cccc3ccccc23)(C(c2ccccc2)c2cc3cc(Br)ccc3nc2OC)OC1.[I-] (single isomer, unassigned) [Compound 20] | 1.8 | 4.6 | 0.5 | 1.8 | 2.1 | 2.3 | – | – | – | – | 215 | – |
| COc1nc2ccc(Br)cc2cc1C(c1ccccc1)C1(c2cccc3ccccc23)CCN(C)CO1 (single isomer, unassigned) [Compound 7] | 13.9 (≈ 25.1 µM) | 13.9 (≈ 25.1 µM) | 13.9 (≈ 25.1 µM) | 13.9 (≈ 25.1 µM) | 13.9 (≈ 25.1 µM) | – | – | – | – | – | 108 | – |
| COc1nc2ccc(Br)cc2cc1C(c1ccc(Cl)cc1)C1(c2cccc3ccccc23)CCN(C)CO1 (single isomer, unassigned) [Compound 21] | 14.8 (≈ 25.2 µM) | 14.8 (≈ 25.2 µM) | 14.8 (≈ 25.2 µM) | 14.8 (≈ 25.2 µM) | 14.8 (≈ 25.2 µM) | – | – | – | – | – | 201 | – |
| COc1nc2ccc(-c3ccccc3)cc2cc1C(c1ccccc1)C1(c2cccc3ccccc23)CCN(C)CO1 (single isomer, unassigned) [Compound 9] | – | – | – | – | – | – | 55.1 (≈ 100 µM) | 55.1 (≈ 100 µM) | 55.1 (≈ 100 µM) | 55.1 (≈ 100 µM) | – | IC90 [1]: 55.1 µg/mL (≈ 100 µM); IC90 ([3]; Listeria monocytogenes, ATCC49594, 90% inhibitory concentration for bacterial growth, read-out: IC90 LMO 49594): 55.1 µg/mL (≈ 100 µM); IC90 [5]: 55.1 µg/mL (≈ 100 µM); IC90 [7]: 4.9 µg/mL (≈ 8.9 µM); IC90 [9]: 55.1 µg/mL (≈ 100 µM) |
| CC[N+]1(C)CCC(c2cccc3ccccc23)(C(c2ccccc2)c2cc3cc(Br)ccc3nc2OC)OC1.[I-] (single isomer, unassigned) [Compound 19] | – | – | – | 0.5 | – | – | 1.8 | 3.7 | 0.4 | 1.8 | 236 | IC90 [9]: 2.3 µg/mL |
| COc1nc2ccc(Br)cc2cc1C(c1ccccc1)C1(c2cccc3ccccc23)CC[N+](C)(C)CO1.[I-] (single isomer, unassigned) [Compound 17] | 1.8 | 2.0 | 1.8 | 1.8 | 1.8 | 2.3 | – | – | – | – | 245 | – |
| COc1nc2ccc(Br)cc2cc1C(c1ccc(Cl)cc1)C1(c2cccc3ccccc23)CCN(C)CO1 (single isomer, unassigned) [Compound 13] | – | – | – | – | – | – | 14.8 (≈ 25.2 µM) | 14.8 (≈ 25.2 µM) | 14.8 (≈ 25.2 µM) | 14.8 (≈ 25.2 µM) | – | IC90 [7]: 13.2 µg/mL (≈ 22.5 µM) |
